The numbers were not newly measured in patent US6559178B1 (priority 2002, dated 2003), which cites them from elsewhere.

This data set has as its system cancer. Conditions: Phase II testing.

Regarding `CC(=O)OC[C@]12CCC(C)=C[C@H]1O[C@@H]1[C@H](O)[C@@H](OC(C)=O)[C@@]2(C)[C@]12CO2` [Anguidine], the hematologic toxicity entry is reported as “considerable hematologic toxicity” and the tumor response entry is “low tumor response”.
